Test [1] has as its system C48-resistant Mtb H37Rv mutants. It counts as cell-based, Mycobacterium tuberculosis. Particulars: for susceptibility of C48-resistant mutants: compared with parent strain.
Test [2] relates to H37Rv ΔbioA TetON-5 (BioA-UE). In kind it is cell-based. Particulars: Fig. 2C.
The subject of test [3] is H37Rv ΔbioA TetON-1 (BioA-OE). In kind it is cell-based. Conditions: for normalized growth (no drug = 100): Fig. 2C, BioA-OE.
For test [4], the system named is drug sensitive and resistant Mtb isolates. The experiment in a line: microbe, parasite or virus in culture. It counts as cell-based. Particulars: Mycobacterium tuberculosis.
The subject of another test is WT H37Rv. In kind it is cell-based, Mycobacterium tuberculosis.
[5] abbreviates: M. tb CRC clinical strain K5072429, DS.

Converted amounts (≈) assume the structure as drawn. “And” between values parts separate entries of the source, which are not always exact repeats. Equal entries are not always repeated. “Also recorded” adds a separate entry of the source. Where two headings read alike, the source gives them in different places. Where only a bound is given, the exact number is not on record here.

As to `CO[C@H]1/C=C/O[C@@]2(C)Oc3c(C)c(O)c4c(O)c(c(/C=N/N5CCN(C)CC5)c(O)c4c3C2=O)NC(=O)/C(C)=C\C=C\[C@H](C)[C@H](O)[C@@H](C)[C@@H](O)[C@@H](C)[C@H](OC(C)=O)[C@@H]1C` [Rifampicin, rifampicin, reference compound], the “susceptibility of C48-resistant mutants” value in test [1] was “retained susceptibility”.

For the molecule `O=C1CCc2cc(N3CCN(C(=O)c4ccc(F)c(Br)c4)CC3)ncc21` [C48], the “normalized growth (no drug = 100)” value was 85.8582 and 52.7583 and 51.6425 in test [2] ([C48] 0.02 µM); 81.0305 and 46.7008 and 49.5132 in test [2] ([C48] 0.0434 µM); 0.2448 and 0.3701 and 0.3017 in test [2] ([C48] 0.443 µM); 0.6433 and 0.5522 and 0.8369 in test [2] ([C48] 4.52 µM); 0.723 and 0.8369 and 1.008 in test [2] ([C48] 21.3 µM); 1.133 and 0.9394 and 1.076 in test [2] ([C48] 46.1 µM). The “normalized growth (no drug = 100)” value in test [2] ([C48] 100 µM) is 0.9037 and 0.9849 and 0.9735; in test [3] ([C48] 0.02 µM), 99.1764 and 99.8577 and 98.7033; in test [3] ([C48] 0.0434 µM) it was 95.2869 and 101.385 and 96.6682; in test [3] ([C48] 0.0941 µM) it was 94.175 and 96.4099 and 95.7333; in test [3] ([C48] 0.204 µM) it was 92.9284 and 86.8526 and 87.9532; in test [3] ([C48] 0.443 µM) it was 34.2705 and 25.7913 and 36.1572. Further, the “normalized growth (no drug = 100)” value was 3.4759 and 3.24 and 3.555 in test [3] ([C48] 0.96 µM); 1.679 and 2.083 and 1.432 in test [3] ([C48] 4.52 µM); 2.409 and 2.139 and 2.1956 in test [3] ([C48] 21.3 µM); 1.96 and 2.297 and 2.072 in test [3] ([C48] 46.1 µM); 1.477 and 2.083 and 1.862 in test [3] ([C48] 100 µM). In test [3] (ATc-inducible BioA overexpression), the “potency with increasing expression of BioA” value was “decreases monotonically”. The MIC was < 0.024 µM in test [4] (setting [5]); 0.024 µM (≈ 0.01 µg/mL) in test [4] (M. tb Erdman, DS); 0.0156 µM (≈ 0.00652 µg/mL) in test [4] (M. tb HN878, DS); 0.047 µM (≈ 0.0197 µg/mL) in test [4] (M. tb K03b00DS, DS); 0.023 µM (≈ 0.00962 µg/mL) in test [4] (M. tb K04b00DS, DS); 0.0156 µM (≈ 0.00652 µg/mL) in test [4] (M. tb K05b00DS, DS). The MIC in test [4] (M. tb K07b00DS, DS) is 0.023 µM (≈ 0.00962 µg/mL); in test [4] (M. tb K08b00DS, DS), < 0.024 µM; in test [4] (M. tb K09b00DS, DS), 0.023 µM (≈ 0.00962 µg/mL); in test [4] (M. tb K10b00DS, DS), < 0.024 µM; in test [4] (M. tb K11b00DS, DS), 0.0625 µM (≈ 0.0261 µg/mL); in test [4] (M. tb K12b00DS, DS), 0.023 µM (≈ 0.00962 µg/mL). In addition, the MIC was 0.023 µM (≈ 0.00962 µg/mL) in test [4] (M. tb K13b00DS, DS); 0.0156 µM (≈ 0.00652 µg/mL) in test [4] (M. tb K14b00DS, DS); < 0.024 µM in test [4] (M. tb K15b00DS, DS); < 0.024 µM in test [4] (M. tb K16b00DS, DS); < 0.024 µM in test [4] (M. tb K17b00DS, DS); < 0.024 µM in test [4] (M. tb K35b00DS, DS). In addition, the MIC in test [4] (M. tb NIH1B314, DR) is 0.0313 µM (≈ 0.0131 µg/mL); in test [4] (M. tb NIH_G1DS, DS) it was < 0.024 µM; in test [4] (M. tb NIH_G9R, DR) it was 0.0156 µM (≈ 0.00652 µg/mL); in test [4] (M. tb NIH_G10R, DR), 0.0313 µM (≈ 0.0131 µg/mL); in test [4] (M. tb NIH_G11R, DR), 0.0156 µM (≈ 0.00652 µg/mL); in test [4] (M. tb NIH_G12, DS), < 0.024 µM. Also, the MIC in test [4] (M. tb NIH_G16R, DR) is < 0.024 µM; in test [4] (M. tb NIH_G17R, DR), < 0.024 µM; in test [4] (M. tb NIH_G22R, DR), < 0.024 µM; in test [4] (M. tb NIH_GA36, DS) it was < 0.024 µM; in test [4] (M. tb NIH_SA3, DS) it was < 0.024 µM; in test [4] (M. tb NIH_SA23, DS) it was < 0.024 µM. In addition, the MIC in test [4] (M. tb NIH_SA27, DS) is < 0.024 µM; in test [4] (M. tb NIH_SA39, DS) it was < 0.024 µM; in test [4] (M. tb NIH_SA43, DS), < 0.024 µM; in test [4] (M. tb NIH_SA125, DS), < 0.024 µM. Moreover, in the test with WT H37Rv, the “frequency of spontaneously resistant mutants” value is recorded as “approximately 3×10^−8”. For the same molecule, the “MIC shift compared to WT” value in test [1] is given as “Large; also recorded: Medium”. The “increase in MIC of 30 resistant mutants compared to WT H37Rv” value in test [1] is “approximately 300 fold”. Further, in test [1], the “resistance level of bioA mutant Met91Ile” value is reported as “high-level resistance”. Also, the “resistance level of bioA mutants Met91Val, Met91Thr, Cys168Tyr” value in test [1] is given as “medium-level resistance”.

In the case of `NNC(=O)c1ccncc1` [INH, isoniazid, reference compound], the “susceptibility of C48-resistant mutants” value in test [1] is given as “retained susceptibility”.

In the case of `CC(=O)NC[C@H]1CN(c2ccc(N3CCOCC3)c(F)c2)C(=O)O1` [Linezolid, reference compound], the MIC was 1.2 µM (≈ 0.405 µg/mL) in test [4] (M. tb CDC1551, DS); 1.2 µM (≈ 0.405 µg/mL) in test [4] (setting [5]); 1.6 µM (≈ 0.54 µg/mL) in test [4] (M. tb Erdman, DS); 2.3 µM (≈ 0.776 µg/mL) in test [4] (M. tb K03b00DS, DS); 1.2 µM (≈ 0.405 µg/mL) in test [4] (M. tb K04b00DS, DS); 2.3 µM (≈ 0.776 µg/mL) in test [4] (M. tb K07b00DS, DS). In addition, the MIC in test [4] (M. tb K09b00DS, DS) came out at 1.2 µM (≈ 0.405 µg/mL); in test [4] (M. tb K13b00DS, DS), 1.2 µM (≈ 0.405 µg/mL); in test [4] (M. tb K14b00DS, DS) it was 1.2 µM (≈ 0.405 µg/mL); in test [4] (M. tb K35b00DS, DS) it was 1.2 µM (≈ 0.405 µg/mL); in test [4] (M. tb NIH_G1DS, DS) it was 2.3 µM (≈ 0.776 µg/mL); in test [4] (M. tb NIH_G9R, DR) it was 2.3 µM (≈ 0.776 µg/mL). Besides, the MIC in test [4] (M. tb NIH_G11R, DR) is 2.3 µM (≈ 0.776 µg/mL); in test [4] (M. tb NIH_G12, DS) it was 2.3 µM (≈ 0.776 µg/mL); in test [4] (M. tb NIH_G16R, DR), 3.13 µM (≈ 1.06 µg/mL); in test [4] (M. tb NIH_G17R, DR) it was 3.13 µM (≈ 1.06 µg/mL); in test [4] (M. tb NIH_G22R, DR), 3.13 µM (≈ 1.06 µg/mL); in test [4] (M. tb NIH_GA36, DS), 1.6 µM (≈ 0.54 µg/mL).

For the origin of these results see publication doi:10.1101/2025.09.24.678246 (bioRxiv, 2025).
